The text below walks through data of US20210069145A1, “COMPOSITIONS AND METHODS FOR REDUCING A FATTY ACID DESATURATION INDEX IN A SUBJECT IN NEED THEREOF” (Amarin Pharmaceuticals Ireland Limited, priority 2013, published 2021).

The subject of this experiment is fatty acid desaturation index (FADI), plasma. The experiment can be described thus: Fatty acid desaturation index (FADI) ratios in plasma, 12-week placebo-controlled study. In kind it is in vivo, human. To be noted: 4 g/day, 12 weeks, placebo-adjusted, from baseline. The method, then: A multi-center, placebo-controlled, randomized, double-blind, 12-week study was performed to evaluate the efficacy and safety of >96% E-EPA in patients with fasting triglyceride levels ≥200 mg/dl and <500 mg/dl despite statin therapy (the mean of two qualifying entry values needed to be ≥185 mg/dl and at least one of the values needed to be ≥200 mg/dl). The primary objective of the study was to determine the efficacy of >96% E-EPA 2 g daily and 4 g daily, compared to placebo, in lowering fasting TG levels in patients with high risk for cardiovascular disease and with fasting TG levels ≥200 mg/dl and <500 mg/dl, despite treatment to LDL-C goal on statin therapy.
The population for this study was men and women >18 years of age with a body mass index ≤45 kg/m^2 with fasting TG levels greater than or equal to 200 mg/dl and less than 500 mg/dl and on a stable does of statin therapy (with or without ezetimibe). The statin was atorvostatin, rosuvastatin or simvastatin. The dose of statin must have been stable for ≥4 weeks prior to the LDL-C/TG baseline qualifying measurement for randomization. The statin dose was optimized such that the patients are at their LDL-C goal at the LDL-C/TG baseline qualifying measurements. The same statin at the same dose was continued until the study ended. […]
The primary efficacy variable for the double-blind treatment period was percent change in TG from baseline to Week 12 endpoint. The secondary efficacy variables for the double-blind treatment period included the following: • Percent changes in total cholesterol (TC), high-density lipoprotein cholesterol (HDL-C), LDL-C, calculated non-HDL-C, and very low-density lipoprotein cholesterol (VLDL-C) from baseline to Week 12 endpoint; • Percent change in very low-density lipoprotein TG from baseline to Week 12; • Percent changes in apolipoprotein A-I (apo A-I), apolipoprotein B (apo B), and apo A-I/apo B ratio from baseline to Week 12; • Percent changes in lipoprotein(a) from baseline to Week 12; • Percent changes in LDL particle number and size, measured by nuclear magnetic resonance, from baseline to Week 12; • Percent change in remnant-like particle cholesterol from baseline to Week 12; • Percent change in oxidized LDL from baseline to Week 12; • Changes in FPG and HbA1c from baseline to Week 12; • Change in insulin resistance, as assessed by the homeostasis model index insulin resistance, from baseline to Week 12; • Percent change in lipoprotein associated phospholipase A2 (Lp-PLA2) from baseline to Week 12; • Change in intracellular adhesion molecule-1 from baseline to Week 12; • Change in interleukin-2 from baseline to Week 12; • Change in plasminogen activator inhibitor-1 from baseline to Week 12. […]

Where [1] appears, read: listed as Ethyl Eicosapentaenoate.

With `CC/C=C\C/C=C\C/C=C\C/C=C\C/C=C\CCCC(=O)OCC` [ethyl eicosapentaenoate, all-cis eicosa-5,8,11,14,17-pentaenoic acid ethyl ester], the “FADI-16 (Palmitoleic acid/Palmitic acid, C16:1/C16:0) % Change, Plasma” value was “significantly reduced” and the “FADI-18 (Oleic acid/Stearic Acid, C18:1/C18:0) % Change, Plasma” value is on record as “significantly reduced”. In addition, under setting [1], the “FADI-16 (Palmitoleic acid/Palmitic acid, C16:1/C16:0) % Change, Plasma” value was −6.8% and the “FADI-18 (Oleic acid/Stearic Acid, C18:1/C18:0) % Change, Plasma” value was −9.8%.
